Reference: the METLIN SMRT retention time set (Domingo-Almenara et al. 2019)

Experiment: gradient 5% acetonitrile 3 min, to 50% in 2 min, to 85% in 15 min, held 3 min, 100 µL/min
Settings: column: Zorbax Extend-C18 2.1 x 50 mm; eluents: water / acetonitrile, 0.1% formic acid
Summary of the method: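 Retention times come from adduct peaks that were picked computationally and then checked by hand. The standards, pure and pooled in mixtures of ~100 molecules, were run on a Zorbax Extend-C18 column (2.1 × 50 mm, 1.8 μm) at 100 μL/min with water and acetonitrile, each with 0.1% formic acid. Detection was by quadrupole time-of-flight mass spectrometry in positive and negative ionization mode, with a dead volume of 40 μL and a dwell volume of 900 μL.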

Row | RP-LC retention time | Structure (SMILES)
1 | 640 s | Cn1nc(N2CCC(NC(=O)c3ccsc3)C2)ccc1=O (centres undefined)
2 | 670 s | O=C(NCCN1CCCCCC1)c1cc2n(n1)CCCN(Cc1ccc(Cl)cc1)C2=O
3 | 585 s | CCNC(=O)N1CCCC(Cn2c(C3CC3)nc3cccnc32)C1 (centres undefined)
4 | 582 s | Cc1nnc(CNC(=O)c2cc(-c3cccs3)[nH]n2)o1
5 | 768 s | CCNC(=O)N1CCOc2cc(C)ccc21
6 | 856 s | CC(C)C(=O)NC(c1ccc(F)cc1)c1nnc(-c2ccccc2)o1 (centres undefined)
7 | 710 s | O=C(C(=O)N1CCN(c2cccc(Cl)c2)CC1)c1c[nH]c2ccccc12
8 | 830 s | CC(=O)N1CCc2cc(CNS(=O)(=O)c3ccc(Br)cc3)ccc21
9 | 760 s | CC(=O)c1cccc(NC(=O)C2CC(=O)N(c3ccc4c(c3)CCN4C(=O)C3CCC3)C2)c1 (centres undefined)
10 | 667 s | COC(=O)Nc1nc(CC(=O)NCc2ccccc2Cl)cs1
11 | 622 s | O=C(NCc1ccc(F)cc1)C1CCCN(c2ccc(-c3ccco3)nn2)C1 (centres undefined)
12 | 1030 s | COc1cc(NC(=O)c2sc(-c3cn(C(C)C)c4ncccc34)nc2C)cc(OC)c1
13 | 644 s | Cc1nccn1CC(=O)N1CCCn2cc(-c3ccccc3F)nc21
14 | 895 s | Cc1nc(-c2csc(S(=O)(=O)N3CCC(C(=O)NCc4ccccc4Cl)CC3)c2)no1
15 | 1110 s | CC(C)n1c(=O)c2ccccc2n(Cc2nc(-c3ccc(F)cc3)no2)c1=O
16 | 597 s | CC1CCCCN1Cc1nnc(-c2ccccc2)o1 (centres undefined)
17 | 768 s | O=C(Cn1ccc2c(SCc3ccccc3)nccc21)N1CCN(c2ccccc2)CC1
18 | 889 s | COc1ccc(CC(=O)Nc2ccc(-c3nc(Cn4cc(C)cn4)c(C)o3)cc2)cc1
19 | 869 s | CCC(=O)N(C1CCOCC1)C1CCN(S(=O)(=O)c2ccc(C)c(C)c2)CC1
20 | 794 s | Cc1cc(C2CCCN2C(=O)Nc2cccc(Cl)c2C)on1 (centres undefined)
21 | 725 s | O=C(NCCn1c(=O)n(Cc2ccccc2)c2cccnc21)c1ccoc1
22 | 729 s | CCCCOc1ccc(-c2cc3c4nnc(CCC(=O)N5CCC(C(N)=O)CC5)n4ccn3n2)cc1
23 | 906 s | COc1cc(C(=O)N2CC(=O)Nc3ccc(F)cc3C2c2ccccc2)cc(OC)c1OC (centres undefined)

Row | RP-LC retention time | Structure (SMILES)
24 | 882 s | COc1ccc(-n2ccnc(NC(=O)Nc3cccc(F)c3)c2=O)cc1OC
25 | 858 s | Cc1nc(-c2cn(-c3cccc(Cl)c3)nn2)no1
26 | 1080 s | Fc1ccccc1-c1noc(-c2ncn3c2COC(c2ccccc2Cl)C3)n1 (centres undefined)
27 | 836 s | C=CCN1C(=O)C2(c3ccccc31)c1[nH]c3ccccc3c1CCN2C(C)=O (centres undefined)
28 | 702 s | O=C(NCc1cccc(F)c1)C1CCCN(c2cnc3nccnc3c2)C1 (centres undefined)
29 | 1250 s | Cc1cccc(OCc2nc(-c3ccc(-c4csc(C)n4)cc3)no2)c1
30 | 1010 s | Cc1ccc(-c2nc(Cn3nnc(C(=O)NCc4ccc(C)o4)c3C)c(C)o2)cc1
31 | 650 s | O=C(c1ccc(-c2csc(C3CC3)n2)cc1)N1CCN(c2ccccn2)CC1
32 | 815 s | CCCC(=O)Nc1cnc(-c2ccccc2)nc1
33 | 710 s | COc1ccc(-c2nnc3sc(-c4ccncc4)nn23)cc1OC
34 | 916 s | CCCCOc1c(C(=O)c2c(F)cc(C)cc2F)cnc2[nH]ncc12
35 | 780 s | Cc1ccc(N(C)C(=O)C2CCN(S(=O)(=O)c3ccc4c(c3)NC(=O)CO4)CC2)cc1
36 | 638 s | CC1CCN(Cc2csc(N3CCN(C(=O)c4ccc(C#N)cc4)CC3)n2)CC1
37 | 729 s | CS(=O)(=O)N1CCC(OC2CCN(C(=O)Nc3ccc(F)cc3)CC2)CC1
38 | 774 s | CCn1cnc2ccc(-c3noc(Cc4ccc(Cl)cc4)n3)cc21
39 | 718 s | CCOc1ccc(S(=O)(=O)Nc2cc(-c3cn4ccc(C)cc4n3)ccc2C)cc1
40 | 817 s | Cc1ccc(NC(=O)N2C[C@@H](F)C[C@H]2C(=O)N2CCc3ccccc3C2)c(C)c1
41 | 547 s | CC(=O)Nc1ccc(S(=O)(=O)NCC2CCN(Cc3cccs3)CC2)c(C)c1
42 | 684 s | COC(=O)c1ccc2c(=O)n(-c3ccccc3)c(N3CCN(c4ccccn4)CC3)nc2c1
43 | 717 s | O=C(Nc1nccs1)C1CCN(C(=O)Cc2c(F)cccc2Cl)CC1
44 | 1120 s | Cc1c(Cl)cccc1Nc1c(-c2ccc(Cl)cc2)nc2cnccn12
45 | 649 s | CCN(CCCNC(=O)C1CCCN(c2ncnc3c2oc2ccccc23)C1)c1ccccc1 (centres undefined)
46 | 787 s | Cc1nc(CNC(=O)[C@H]2CCCN2S(=O)(=O)c2cccc(C(F)(F)F)c2)cs1

Row | RP-LC retention time | Structure (SMILES)
47 | 990 s | CCC(C)NC(=O)c1nccnc1NC(=O)c1ccc(C)cc1 (centres undefined)
48 | 1010 s | Cn1nc(-c2nnc(-c3ccccc3F)o2)c2c1CCN(S(=O)(=O)c1ccc3c(c1)CCC3)C2
49 | 779 s | CC1=C(c2ccc(Cl)cc2)S(=O)(=O)N=C1N1CCC(NC(=O)C2CCCO2)CC1 (centres undefined)
50 | 808 s | COc1ccc(Br)cc1CNC(=O)C1CCCN(C(=O)c2[nH]c(C)cc2C)C1 (centres undefined)
51 | 1310 s | CCCOc1ccc(-c2noc(Cc3nc(-c4ccc5c(c4)OCO5)cs3)n2)cc1
52 | 708 s | CCN(CC)S(=O)(=O)N1CCC(C(=O)Nc2cccc(CCc3nc4ccc(C)cc4[nH]3)c2)CC1
53 | 715 s | COCCN1CCn2cc(S(=O)(=O)Nc3ccc(C)cc3)cc2C1=O
54 | 1060 s | Cc1cc2nn(CC(=O)Nc3cccc(Cl)c3)c(=O)n2c(Nc2ccccc2)n1
55 | 638 s | CN(CC1CCOC1)C(=O)Nc1c(F)cccc1F (centres undefined)
56 | 903 s | Cc1noc(-c2ccnc(-n3ncc(C(=O)NCCc4c[nH]c5ccccc45)c3C)c2)n1
57 | 1100 s | Cc1ccccc1-n1c(=O)c2sccc2n(Cc2nc(-c3cccc(C(F)(F)F)c3)no2)c1=O
58 | 536 s | Cc1cnc(C2CN(Cc3cccnc3)C2)n1Cc1ccccc1
59 | 910 s | O=C(c1cccs1)N1CCCC1c1ccc(F)cc1 (centres undefined)
60 | 882 s | O=C(NC1CC1)c1cc(-c2cccc(F)c2)ns1
61 | 1080 s | Cc1ccc(S(=O)(=O)N(C)C)cc1-c1nnc(-c2ccc(Cl)cc2)o1
62 | 924 s | O=C(C1CCCC1)N1CCC(c2noc(-c3ccccc3)n2)C1 (centres undefined)
63 | 1110 s | Cc1cc2oc(=O)c(C)c(C)c2c2c1C(=O)CC(c1ccc3c(c1)OCO3)O2 (centres undefined)
64 | 809 s | CCn1nnc2cc(-c3noc(C4CC(=O)N(c5cccc(Cl)c5)C4)n3)ccc21 (centres undefined)
65 | 830 s | Cc1nn(CCC(=O)NC2CCCCCC2)c(=O)c2nn(-c3ccccc3)c(C)c12
66 | 868 s | CC(C)Cn1cc(CCNC(=O)c2cc(F)ccc2F)c2cccnc21
67 | 817 s | COc1ccc(-c2nc3cnccn3c2Nc2cccc(Cl)c2)cc1OC
68 | 873 s | CCCc1noc(-c2ccnc(-n3cnc(C(=O)N4CCSCC4)c3)c2)n1
69 | 965 s | Cc1ccc(CCNC(=O)CN2C(=O)CSc3cccn3-c3ccccc32)cc1

Row | RP-LC retention time | Structure (SMILES)
70 | 692 s | O=C(CCc1c(-c2ccccc2)nc2ccccn12)Nc1cccc(Cl)c1
71 | 735 s | CCOC(=O)c1c(C)oc2nc(C)nc(NCCN(Cc3ccccc3)C(C)C)c12
72 | 666 s | O=C(CN1CCSc2ccccc21)NCCCN1CCN(Cc2ccccc2)CC1
73 | 1360 s | O=C(Nc1ccc(Cl)cc1Cl)c1ccc(Br)cc1F
74 | 821 s | Cc1ccccc1CN1CC(F)(F)C[C@H]1COc1ccncc1
75 | 739 s | CCOc1ccccc1CNC(=O)C1CCN(S(=O)(=O)c2cn(CC)cn2)CC1
76 | 638 s | COc1ncc(C(=O)Nc2ccc(F)cc2C)c(C)n1
77 | 872 s | CCOC(=O)Cn1c(C2CC(=O)N(c3cccc(Cl)c3)C2)nc2ccccc21 (centres undefined)
78 | 718 s | CN1CCCn2nc(C3CCN(C(=O)c4cccc(C(F)(F)F)c4)CC3)cc2C1=O
79 | 587 s | COc1cc(C(=O)N2CCN(c3cc(C)n4c(C)nnc4n3)CC2)cc(OC)c1OC
80 | 616 s | O=C(Cn1ncc2c(N3CCN(c4ccccn4)CC3)ncnc21)Nc1ccc(Cl)cn1
81 | 788 s | O=C(Nc1nnc(-c2ccc(Br)cc2)o1)c1ccccc1F
82 | 858 s | CCc1ccc(S(=O)(=O)N2CC(F)(F)C[C@H]2c2nnc(C)o2)cc1
83 | 652 s | CC(=O)Nc1cc(C(=O)NCCC2=CCCCC2)c2ccc(C)nc2c1
84 | 1020 s | O=C(Nc1nc(-c2ccccc2)cs1)c1c(-c2ccc(F)cc2)nc2n1CCS2(=O)=O
85 | 1130 s | COc1ccc(S(=O)(=O)N2CCC(c3cnn(-c4cccc(C)c4)c3)CC2)cc1
86 | 1000 s | COc1ccc(-c2noc(C3(NC(=O)c4ccco4)CCCCC3)n2)cc1
87 | 1040 s | COc1cccc2c1OC1(C)CC2C(S(=O)(=O)c2ccc(C(C)C)cc2)C(=O)N1C (centres undefined)
88 | 1060 s | CCCCN(C)C(=O)C1CCN(c2cc(Oc3ccc(CC)cc3)ncn2)CC1
89 | 1010 s | Cc1ccc(NC(=O)N2CCCC(C)(C(=O)NCc3ccc(F)cc3)C2)c(Cl)c1 (centres undefined)
